≈ marks a conversion by molar mass, not a printed value. Bridge positions count the residues as written; N and C are the ends. Square brackets hold non-standard residues; d marks the D form. Peptide text beside a SMILES is read from it. * marks the point of attachment. N(3-phenylpropyl)Gly = O=C(O)CNCCCc1ccccc1; Gly(NCH2CH2Ph) = O=C(O)CNCCc1ccccc1; Gly(N-2-aminoethyl) = NCCNCC(=O)O; Gly(N(CH2)3NH2) = NCCCNCC(=O)O; Gly(N-cPent) = O=C(O)CNC1CCCC1; Heptanoyl = CCCCCCC(=O)*; Nphe = O=C(O)CNCc1ccccc1; Octanoyl = CCCCCCCC(=O)*; Dab = NCC[C@H](N)C(=O)O; NPrGly = CCCNCC(=O)O
How the values were obtained:
[1] = test system: P. aeruginosa PAO1; experiment: DiSC3(5) inner-membrane depolarization assay; type: cell-based, Pseudomonas aeruginosa; details: 2 µM DiSC3(5), mean ± SD, n = 3
Method: Outer Membrane (NPN) - E. coli
Figure S6. Outer membrane permeability assay with 10 μM NPN, on E. coli W3110.
13. DiSC3(5) Inner-Membrane Depolarization Assay
A single colony of P. aeruginosa PAO1 and E. coli W3110 was grown overnight with shaking […]
(150 rpm) in LB broth (5 mL) at 37 °C. 100 μL of the overnight culture was regrown in 10 […]
mL LB broth with shaking (200 rpm) to the exponential phase OD600 = 1 (10^9 CFU/mL).
Bacteria were washed once with HEPES buffer (5 mM HEPES, 5 mM glucose, pH 7.4) and […]
diluted to OD600 = 0.5. Stock solution of 10 mM of 3,3′ -Dipropylthiadicarbocyanine iodide […]
(DiSC3(5), purchased from Sigma) was prepared in DMSO. Stock solutions of 2 m g/mL of […]
the compounds were prepared in sterilized milli -Q water and diluted to the beginning […]
concentration of 128 μg/mL in 200 μL HEPES buffer. The diluted samples were added to the […]
first well of 96-well plates (black wells, flat bottom, BRAND ® GmbH Wertheim, Germany) […]
and diluted serially by 1/2. […]
DiSC3(5) in HEPES buffer. The plate was measured with a Tecan instrument Infinite M1000 […]
wavelength used was 610 nm ± 5 nm and the emission wavelength 660 nm ± 5 nm. The assay was measured in triplicate and repeated at least two times.[10,11] […]
Saturation determination. […] The fluorescence saturation of DsPMB with LPS was first determined, by titration (0.25 μM increments, up to 5 μM) of the DsPMB into a 3 μg/mL of LPS (10 mM Tris, 10 mM NaCl buffer, pH 7.4), at 37 °C. The fluorescence was recorded with a Jasco spectrofluorometer FP-8300, with the excitation at λex = 340 nm (5 nm slit width) and recorded from 420 to 650 nm. The fluorescence was recorded two minutes after each addition. Saturation was graphically determined, at a concentration of D sPMB ≈ 2.5 μM (λem = 485 nm). Each measurement was determined in triplicates.
Displacement assay. The displacement effect of the various peptides was determined by measuring the reduction of fluorescence intensity, at 37 °C. Initially, DsPMB (2.5 μM) was mixed with LPS (3 μg/mL) and let it react for 15 minutes before recording the fluorescence

[2] = test system: P. aeruginosa PAO1; type: cell-based, Pseudomonas aeruginosa; details: for Effect of salt on antibacterial activity against P. aeruginosa: NaCl 0-300 mM in 12.5% Mueller-Hinton broth at pH 8.5; for MIC on P. aeruginosa, 0 mM NaCl / MIC on P. aeruginosa, 100 mM NaCl / MIC on P. aeruginosa, 200 mM NaCl / MIC on P. aeruginosa, 300 mM NaCl: PAO1, pH 8.5
Method: Minimal Inhibitory Concentration (MIC)
Antimicrobial activity was assayed for all the peptide-peptoids against P. aeruginosa PAO1, K. pneumoniae NCTC418, E. coli W3110, A. baumannii ATCC 19606, methicillin-resistant S. aureus COL (MRSA) and for selected peptides on P. aeruginosa PA14, as well as the clinical isolates ZEM-1A and ZEM9A, K. pneumoniae OXA-48, Enterobacter cloacae, Stenotrophomonas maltophilia and Staphylococus epidermidis. To determine the Minimal Inhibitory Concentration (MIC), Broth Microdilution method was used. A colony of bacteria was picked and grown in LB medium overnight at 37 °C. The next day, the culture was then regrown in LB medium to log phase (OD600 = 0.6 to 0.8), which lasted approximately 4 hours, and diluted to an OD600 of 0.022 in the desired medium (full MH or 12.5% MH).
The compounds were prepared as stock solutions of 2 mg/mL in sterilized MilliQ deionized water and then diluted in the desired media (full MH or 12.5% MH) to reach the first concentration tested (32 μg/mL). The compounds were added to the first well of a 96-well sterile, round bottom microtiter plates in polystyrene (TPP®, untreated) and diluted serially by ½ in the desired media (full MH or 12.5% MH), to a final volume of 150 µL/well. To each well was finally added 4 µL of the diluted bacterial suspension (see above), corresponding to approximately 5×10^5 CFU. For each test, two columns of the plate were kept for sterility control (medium only), growth control (medium with bacterial inoculum, no compound). The positive control, Polymyxin B (starting with a concentration of 16 µg/mL) in MH medium with bacterial inoculums, was introduced in the two first lines of the plate. The plates were incubated at 37 °C for ca. 18 hours under static conditions. 15 µL of 3-(4,5-dimethylthiazol-2-yl)-2,5-diphenyltetrazolium bromide (MTT)[7] (1 mg/mL in sterilized MilliQ deionized water) were added to each well and the plates were incubated for 20-30 minutes at room temperature. The […]
minimal inhibitory concentration (MIC) was defined as the lowest concentration of the compound that inhibits the visible growth of the tested bacteria (yellow) with the unaided eye.
Minimal Hemolytic Concentration (MHC) […]
11. Minimal inhibitory in presence of salt
The same procedure as for the antibacterial activity measurements by minimal inhibitory concentration assay (MIC) was applied. The media, 12.5% Mueller-Hinton broth was this time supplemented with different salt concentrations (0, 100, 200 300 mM NaCl). The MIC activities were then determined against Pseudomonas aeruginosa PAO1 and Escherichia coli […]
Table S6. Minimal inhibitory concentration (MIC) on P. aeruginosa PAO1 as function of salt […]
All data, in μg/mL, measured against P. aeruginosa PAO1, with or without addition of salt (NaCl). The values were measured in dilute medium (12.5% MH) and at slightly basic pH (pH = 8.5), after incubation for 16-20 h at 37 °C. Values represent two different duplicate MIC determinations.

Row | Structure (SMILES) | Inner membrane depolarization (DiSC3(5)) [1] | Effect of salt on antibacterial activity against P. aeruginosa [2] | MIC on P. aeruginosa, 0 mM NaCl [2] [µg/mL] | MIC on P. aeruginosa, 100 mM NaCl [2] [µg/mL] | MIC on P. aeruginosa, 200 mM NaCl [2] [µg/mL] | MIC on P. aeruginosa, 300 mM NaCl [2] [µg/mL]
1 | CCCCCCCC(=O)N(CCc1ccccc1)CC(=O)N[C@@H](CCCCN)C(=O)N[C@@H](CC(N)=O)C(=O)N[C@H]1CCNC(=O)[C@H](CCCCN)NC(=O)CN(CCCN)C(=O)[C@H](CCCCN)NC(=O)CN(CCC)C(=O)[C@H](CCCCN)NC1=O [EB12] (Octanoyl-[Gly(NCH2CH2Ph)]KN[Dab]K[NPrGly]K[Gly(N(CH2)3NH2)]K; lactam 4-C) | induced a depolarization of the inner membrane like PMB2 | inhibited by high salt concentrations | 2 to 4 | 32 (≈ 26.1 µM) | > 64 | > 64
2 | CCCCCCC(=O)N[C@H](C(=O)N(CCN)CC(=O)N(CCCc1ccccc1)CC(=O)N[C@H]1CCNC(=O)[C@H](CCCCN)NC(=O)CN(CCCN)C(=O)[C@H](CCCCN)NC(=O)CNC(=O)[C@H](CCCCN)NC1=O)C(C)C [EB13] (Heptanoyl-V[Gly(N-2-aminoethyl)][N(3-phenylpropyl)Gly][Dab]KGK[Gly(N(CH2)3NH2)]K; lactam 4-C) | induced a depolarization of the inner membrane like PMB2 | inhibited by high salt concentrations | 4 (≈ 3.5 µM) | > 64 | > 64 | > 64
3 | CCCCCCCC(=O)N[C@@H](CCCCN)C(=O)N(CC(=O)N[C@@H](CCCCN)C(=O)N[C@H]1CCNC(=O)[C@H](CCCCN)NC(=O)CN(C2CCCC2)C(=O)CN(CCN)C(=O)[C@H](CCCCN)NC(=O)[C@H](CC(N)=O)NC1=O)Cc1ccccc1 [EB21] (Octanoyl-K[Nphe]K[Dab]NK[Gly(N-2-aminoethyl)][Gly(N-cPent)]K; lactam 4-C) | induced a depolarization of the inner membrane like PMB2 | inhibited by high salt concentrations | 4 (≈ 3.26 µM) | > 64 | > 64 | > 64
